From patent US12667559B2, “Dihydronaphthyridinone compound, and preparation method therefor and medical use thereof” (GENFLEET THERAPEUTICS (SHANGHAI) INC., priority 2020, dated 2026) come the findings set out here.

In this assay the test system is U937 cells. As to the kind of experiment: Inhibitory activity against TNF-α induced programmed cell necrosis (U937 cells, CellTiter-Glo). In kind it is cell-based, human. The settings on record: U937 cells, human TNF-α and Q-VD-Oph induced necrosis, 48 hours, survival rate, read-out: U937 IC50.

Structures are written as SMILES. Read-outs that look alike come from different tables or passages of the source.

As a reminder, the IC50 is the concentration needed to halve the response being measured. Consider `[2H]C([2H])([2H])C(=O)Nc1cn2nc(-c3cnc4c(c3)C(=O)N(Cc3cc(F)cc(F)c3OC3CCOCC3)CC4)ccc2n1` [Z38, N-(6-(6-(3,5-difluoro-2-((tetrahydro-2H-pyran-4-yl)oxy)benzyl)-5-oxo-5,6,7,8-tetrahydro-1,6-naphthyridin-3-yl)imidazo[1,2-b]pyridazin-2-yl)acetamide-2,2,2-d3], for which the IC50 (U-937) turned out to be 1.3 nM.

In the case of `O=C(CO)Nc1cn2nc(-c3cnc4c(c3)C(=O)N(Cc3cc(F)cc(F)c3OC3CCOCC3)CC4)ccc2n1` [Z39, N-(6-(6-(3,5-difluoro-2-((tetrahydro-2H-pyran-4-yl)oxy)benzyl)-5-oxo-5,6,7,8-tetrahydro-1,6-naphthyridin-3-yl)imidazo[1,2-b]pyridazin-2-yl)-2-hydroxyacetamide], the IC50 (Homo sapiens, U-937, 48 h) amounted to 0.9 nM.

As to `Nc1nc2cc(-c3cnc4c(c3)C(=O)N(Cc3ccccc3OC(F)(F)F)CC4)ccn2n1` [Z44, 3-(2-amino-[1,2,4]triazolo[1,5-a]pyridyl-7-yl)-6-(2-(trifluoromethoxy)benzyl)-7,8-dihydro-1,6-naphthyridin-5(6H)-one], where the note is “U-937”, the IC50 was determined as 42 nM.

Regarding `CC(c1ccccc1OC(F)(F)F)N1CCc2ncc(-c3ccn4nc(N)nc4c3)cc2C1=O` (stereo not shown) [Z46, 3-(2-amino-[1,2,4]triazolo[1,5-a]pyridyl-7-yl)-6-(1-(2-(trifluoromethoxy)phenyl)ethyl)-7,8-dihydro-1,6-naphthyridin-5(6H)-one], the IC50 (U-937) worked out at 7 nM.

For `C[C@@H](c1ccccc1OC(F)(F)F)N1CCc2ncc(-c3ccn4nc(N)nc4c3)cc2C1=O` [Z46-1, (S)-3-(2-amino-[1,2,4]triazolo[1,5-a]pyridyl-7-yl)-6-(1-(2-(trifluoromethoxy)phenyl)ethyl)-7,8-dihydro-1,6-naphthyridin-5(6H)-one], for the setting “Homo sapiens, U-937, 48 h”, the IC50 is 7.4 nM.

`C[C@H](c1ccccc1OC(F)(F)F)N1CCc2ncc(-c3ccn4nc(N)nc4c3)cc2C1=O` [Z46-2, (R)-3-(2-amino-[1,2,4]triazolo[1,5-a]pyridyl-7-yl)-6-(1-(2-(trifluoromethoxy)phenyl)ethyl)-7,8-dihydro-1,6-naphthyridin-5(6H)-one]: the IC50 (Homo sapiens, U-937, 48 h) amounted to 986 nM.

As to `Nc1nc2cc(-c3cnc4c(c3)C(=O)N(Cc3cc(OC(F)(F)F)ccc3F)CC4)ccn2n1` [Z48, 3-(2-amino-[1,2,4]triazolo[1,5-a]pyridyl-7-yl)-6-(2-fluoro-5-(trifluoromethoxy)benzyl)-7,8-dihydro-1,6-naphthyridin-5(6H)-one], the IC50 (U-937) was 6 nM.

On to `CC(=O)Nc1nc2cc(-c3cnc4c(c3)C(=O)N(C(C)c3ccccc3OC(F)(F)F)CC4)ccn2n1` (stereo not shown) [Z49, N-(7-(5-oxo-6-(1-(2-(trifluoromethoxy)phenyl)ethyl)-5,6,7,8-tetrahydro-1,6-naphthyridin-3-yl)-[1,2,4]triazolo[1,5-a]pyridyl-2-yl)acetamide], for which the concentration for half-maximal inhibition (IC50) amounted to 26 nM.

Consider `Nc1nc2cc(-c3cnc4c(c3)C(=O)N(Cc3cccc(OC(F)(F)F)c3)CC4)ccn2n1` [Z50, 3-(2-amino-[1,2,4]triazolo[1,5-a]pyridyl-7-yl)-6-(3-(trifluoromethoxy)benzyl)-7,8-dihydro-1,6-naphthyridin-5(6H)-one], for which, where the note is “U-937”, the IC50 is 40 nM.

As for `Nc1nc2cc(-c3cnc4c(c3)C(=O)N(c3cnn(Cc5ccc(F)cc5)c3)CC4)ccn2n1` [Z52, 3-(2-amino-[1,2,4]triazolo[1,5-a]pyridyl-7-yl)-6-(1-(4-fluorobenzyl)-1H-pyrazol-4-yl)-7,8-dihydro-1,6-naphthyridin-5(6H)-one], the IC50 (Homo sapiens, U-937, 48 h) was 19 nM.

As for `Nc1nc2cc(-c3cnc4c(c3)C(=O)N(Cc3cc(F)ccc3CN3CCOCC3)CC4)ccn2n1` [Z54, 3-(2-amino-[1,2,4]triazolo[1,5-a]pyridyl-7-yl)-6-(5-fluoro-2-(morpholinomethyl)benzyl)-7,8-dihydro-1,6-naphthyridin-5(6H)-one], the IC50 (Homo sapiens, U-937, 48 h) was 12 nM.

In the case of `CC(c1cc(F)ccc1OC(F)(F)F)N1CCc2ncc(-c3ccn4nc(N)nc4c3)cc2C1=O` (stereo not shown) [Z55, 3-(2-amino-[1,2,4]triazolo[1,5-a]pyridyl-7-yl)-6-(1-(5-fluoro-2-(trifluoromethoxy)phenyl)ethyl)-7,8-dihydro-1,6-naphthyridin-5(6H)-one], the concentration for half-maximal inhibition (IC50) (U-937) amounted to 8 nM.

Consider `Nc1nc2cc(-c3cc4c(nc3Cl)CCN(Cc3cc(OC(F)(F)F)ccc3F)C4=O)ccn2n1` [Z56, 3-(2-amino-[1,2,4]triazolo[1,5-a]pyridyl-7-yl)-2-chloro-6-(2-fluoro-5-(trifluoromethoxy)benzyl)-7,8-dihydro-1,6-naphthyridin-5(6H)-one], for which the IC50 stood at 4 nM.

Consider `Cc1nc2c(cc1-c1ccn3nc(N)nc3c1)C(=O)N(Cc1cc(OC(F)(F)F)ccc1F)CC2` [Z57, 3-(2-amino-[1,2,4]triazolo[1,5-a]pyridyl-7-yl)-6-(2-fluoro-5-(trifluoromethoxy)benzyl)-2-methyl-7,8-dihydro-1,6-naphthyridin-5(6H)-one], for which the IC50 (Homo sapiens, U-937, 48 h) came to 2 nM.

`CNc1nc2cc(-c3cnc4c(c3)C(=O)N(Cc3cc(OC(F)(F)F)ccc3F)CC4)ccn2n1` [Z59, 6-(2-fluoro-5-(trifluoromethoxy)benzyl)-3-(2-(methylamino)-[1,2,4]triazolo[1,5-a]pyridyl-7-yl)-7,8-dihydro-1,6-naphthyridin-5(6H)-one]: the IC50 (U-937) was 12 nM.

With `CC(c1cc(OC(F)(F)F)ccc1F)N1CCc2ncc(-c3ccn4nc(N)nc4c3)cc2C1=O` (stereo not shown) [Z60, 3-(2-amino-[1,2,4]triazolo[1,5-a]pyridyl-7-yl)-6-(1-(2-fluoro-5-(trifluoromethoxy)phenyl)ethyl)-7,8-dihydro-1,6-naphthyridin-5(6H)-one], the IC50 (U-937) was determined as 162 nM.

For `Nc1nc2cc(-c3cnc4c(c3)C(=O)N(Cc3ncccc3OCC3CC3)CC4)ccn2n1` [Z61, 3-(2-amino-[1,2,4]triazolo[1,5-a]pyridyl-7-yl)-6-((3-(cyclopropylmethoxy)pyridyl-2-yl)methyl)-7,8-dihydro-1,6-naphthyridin-5(6H)-one], the IC50 (U-937) was 14 nM.

With `Nc1nc2cc(-c3cnc4c(c3)C(=O)N(Cc3ncccc3OC3CCOCC3)CC4)ccn2n1` [Z62, 3-(2-amino-[1,2,4]triazolo[1,5-a]pyridin-7-yl)-6-((3-((tetrahydro-2H-pyran-4-yl)oxy)pyridin-2-yl)methyl)-7,8-dihydro-1,6-naphthyridin-5(6H)-one], the IC50 (U-937) is 13 nM.

For the molecule `CC(c1ccc(F)cc1)n1cc(N2CCc3ncc(-c4ccn5nc(N)nc5c4)cc3C2=O)cn1` (stereo not shown) [Z64], the IC50 stood at 2 nM.

For `Nc1nc2cc(-c3cnc4c(c3)C(=O)N(Cc3cc(F)ccc3OC3CCOCC3)CC4)ccn2n1` [Z65], under “Homo sapiens, U-937, 48 h”, the IC50 was 0.5 nM.

As to `Nc1nc2cc(-c3cnc4c(c3)C(=O)N(Cc3cc(F)ccc3OC3CCOC3)CC4)ccn2n1` (stereo not shown) [Z66], under “Homo sapiens, U-937, 48 h”, the 50% inhibitory concentration (IC50) was 2.3 nM.

Regarding `Nc1nc2cc(-c3cnc4c(c3)C(=O)N(Cc3cc(F)cc(F)c3OCC3CC3)CC4)ccn2n1` [Z67], under “Homo sapiens, U-937, 48 h”, the IC50 stood at 0.5 nM.

`Nc1nc2cc(-c3cnc4c(c3)C(=O)N(Cc3ccccc3OC3CC3)CC4)ccn2n1` [Z68]: the IC50 (Homo sapiens, U-937, 48 h) amounted to 4.3 nM.

On to `Nc1nc2cc(-c3cnc4c(c3)C(=O)N(Cc3cc(F)cc(F)c3OC3CCOCC3)CC4)ccn2n1` [Z70], for which, for the setting “Homo sapiens, U-937, 48 h”, the IC50 is 0.4 nM.

As to `Nc1nc2cc(-c3cnc4c(c3)C(=O)N(Cc3cc(F)cc(F)c3OC3CCOC3)CC4)ccn2n1` (stereo not shown) [Z71], the IC50 (Homo sapiens, U-937, 48 h) amounted to 1.1 nM.

As to `Nc1nc2cc(-c3cnc4c(c3)C(=O)N(Cc3cc(C(F)(F)F)ccc3F)CC4)ccn2n1` [Z72], for the setting “Homo sapiens, U-937, 48 h”, the IC50 worked out at 82 nM.

On to `Nc1nc2cc(-c3cnc4c(c3)C(=O)N(Cc3cc(F)ccc3OC3CC3)CC4)ccn2n1` [Z76], for which the IC50 (Homo sapiens, U-937, 48 h) amounted to 4.1 nM.

Take `Nc1nc2cc(-c3cnc4c(c3)C(=O)N(Cc3cccnc3OC3CC3)CC4)ccn2n1` [Z77]: the half-inhibitory concentration (IC50) (Homo sapiens, U-937, 48 h) amounted to 143 nM.

For `Nc1nc2cc(-c3cnc4c(c3)C(=O)N(Cc3ncccc3OC3CC3)CC4)ccn2n1` [Z78], the IC50 (Homo sapiens, U-937, 48 h) stood at 59.5 nM.

For `Nc1nc2cc(-c3cnc4c(c3)C(=O)N(Cc3cc(F)ccc3OC3COC3)CC4)ccn2n1` [Z79], the IC50 (Homo sapiens, U-937, 48 h) was 47.6 nM.

Consider `CC(c1cc(F)ccc1-c1cnn(C)c1)N1CCc2ncc(-c3ccn4nc(N)nc4c3)cc2C1=O` (stereo not shown) [Z80, 3-(2-amino-[1,2,4]triazolo[1,5-a]pyridyl-7-yl)-6-(1-(5-fluoro-2-(1-methyl-1H-pyrazol-4-yl)phenyl)ethyl)-7,8-dihydro-1,6-naphthyridin-5(6H)-one], for which the IC50 was determined as 19.8 nM.

For `Cc1nc2c(cc1-c1ccn3nc(N)nc3c1)C(=O)N(Cc1ncccc1OC1CC1)CC2` [Z93], the IC50 (Homo sapiens, U-937, 48 h) was 13 nM.

As for `O=C(COCc1ccccc1)Nc1cn2nc(-c3cnc4c(c3)C(=O)N(Cc3cc(F)cc(F)c3OC3CCOCC3)CC4)ccc2n1` [Z94, 2-(Benzoxy)-N-(6-(6-(3,5-difluoro-2-((tetrahydro-2H-pyran-4-yl)oxy)benzyl)-5-oxo-5,6,7,8-tetrahydro-1,6-naphthyridin-3-yl)imidazo[1,2-b]pyridazin-2-yl)acetamide], the IC50 (Homo sapiens, U-937, 48 h) was 2.5 nM.

For `CCOC(=O)C(=O)Nc1cn2nc(-c3cnc4c(c3)C(=O)N(Cc3cc(F)cc(F)c3OC3CCOCC3)CC4)ccc2n1` [Z96, ethyl 2-((6-(6-(3,5-difluoro-2-((tetrahydro-2H-pyran-4-yl)oxy)benzyl)-5-oxo-5,6,7,8-tetrahydro-1,6-naphthyridin-3-yl)imidazo[1,2-b]pyridazin-2-yl)amino)-2-oxoacetate], the IC50 (Homo sapiens, U-937, 48 h) is 1.7 nM.

With `Cc1cc(-c2cnc3c(c2)C(=O)N(c2cnn(C(C)c4ccc(F)cc4)c2)CC3)n2ncnc(N)c12` (stereo not shown) [Z97], the IC50 (Homo sapiens, U-937, 48 h) amounted to 0.2 nM.

Turning to `Cc1c(-c2cnc3c(c2)C(=O)N(Cc2ncccc2OC2CC2)CC3)ccn2nc(N)nc12` [Z98, 3-(2-amino-8-methyl-[1,2,4]triazolo[1,5-a]pyridyl-7-yl)-6-((3-cyclopropoxypyridyl-2-yl)methyl)-7,8-dihydro-1,6-naphthyridin-5(6H)-one], the IC50 (Homo sapiens, U-937, 48 h) turned out to be 417 nM.

For `Nc1nc2cc(-c3cnc4c(c3)C(=O)N(Cc3cc(F)ccc3OC(F)(F)F)CC4)ccn2n1` [Z102, 3-(2-amino-[1,2,4]triazolo[1,5-a]pyridyl-7-yl)-6-(5-fluoro-2-(trifluoromethoxy)benzyl)-7,8-dihydro-1,6-naphthyridin-5(6H)-one], the IC50 (Homo sapiens, U-937, 48 h) is 21.1 nM.
